According to patent US20130178469A1, “NOVEL ANTIVIRAL AGENTS” (SHANGHAI INSTITUTE OF ORGANIC CHEMISTRY (SIOC), priority 2010, published 2013):
pEC50: −log10 of the molar value. Where two headings read alike, the source gives them in different places.

Legend:
HIV = test: Inhibition of HIV Replication (NL4-3), extracellular p24 in HuT-78 cells; assay type: cell-based
Description: HuT-78 cells are seeded into 96 well microtitre plates at 50,000 cells per […] per well in RF-10 containing 2 μg/mL polybrene (RF-10/2). Compounds are prepared to 4× final concentration in RF-10/2, and […] added to cells. Virus (40 μL in RF-10/2 containing 1600 pfu) is added to each well or […] RF-10/2 for negative controls and for assaying compound cytotoxicity. After 24 hrs, an additional 90 μL of media or media containing 1× compound is added to each well. At 4 days post infection, 100 μL of media is removed from each well and replaced with 100 μl of fresh media with or without compound. Forty eight hours later supernatants are harvested and levels of extracellular p24 determined. Supernatants are diluted 1 in 10,000 and p24 levels assayed using the Vironostika p24 assay kit. EC50 is calculated as the concentration required to inhibit HIV p24 production to 50% that of no drug controls.
In the tables below, this assay type is referred to as NL4-3.

HIV-1 = test: Luciferase Assay with single-round reporter virus (NLXLuc or HIV-Luc); assay type: cell-based
Text: Infectivity assays using reporter viruses derived from lentiviral vectors capable of a single round of infection were used to determine the activity (EC50) of compounds. The DNA used to generate viruses for infection was the full-length HIV-1 genome which had been envelope-deleted. In addition, a reporter gene (the firefly luciferase gene from Photinus pyralis) was cloned into the nefregion of the HIV backbone for ease of assay readout. […]. Culture supernatants containing VSV-G pseudotyped virions were harvested 64 h post transfection, clarified by centrifugation to remove cell debris, and frozen at −70° C. until use.
293FT cells were plated out at 12000 cells per well in CellView 96-well cell culture plates (Invitrogen) 16 h prior to compound addition. Compounds were preincubated with cells for 4 h at 37° C. prior to the addition of virus sufficient to generate approximately 10000 Luciferase light units (as measured by the Victor Wallace luminometer) upon assaying using the Bright-Glo™ reagent (Promega) according to the manufacturer's instructions at 48 h post infection.
In the tables below, this assay is referred to as NLXLuc or HIV-Luc.

[1] = Human immunodeficiency virus 1, NL43, HuT78

**Q.** With `O=C(NCc1ccc(F)cc1)c1nc2ccc(Br)cn2c(=O)c1O` [reference compound] as the compound, how does the pEC50 (HIV; [1]) read?
**A.** Its pEC50 is 6.00 to 7.00.

**Q.** `O=C(NCc1ccc(Cl)c(Cl)c1)c1nc2c(N3CCCS3(=O)=O)cc(N3CCOCC3)cn2c(=O)c1O` [Example 25, N-(3,4-dichlorobenzyl)-9-(1,3-propanesultam)-3-hydroxy-7-morpholino-4-oxo-4H-pyrido[1,2-a]pyrimidine-2-carboxamide] was tested. Which pEC50 (HIV; [1]) did it give?
**A.** The pEC50 was greater than 9.00.

**Q.** What about the pEC50 (HIV-1; Human immunodeficiency virus 1, HEK-293T) of the same compound?
**A.** Its pEC50 is greater than 9.00.

**Q.** With `CCOC(=O)NC1=CC(N2CCOCC2)=CN2C(=O)C(O)C(C(=O)NCc3ccc(F)cc3)=NC12` (centres unmarked) [Example 23.4, ethyl 2-(4-fluorobenzylcarbamoyl)-3-hydroxy-7-morpholino-4-oxo-4,9a-dihydro-3H-pyrido[1,2-a]pyrimidin-9-yl carbamate] as the compound, how does the pEC50 (HIV) read?
**A.** Its pEC50 is 8.00 to 9.00.

**Q.** With `CC(=O)Nc1cc(N2CCOCC2)cn2c(=O)c(O)c(C(=O)NCc3ccc(F)cc3)nc12` [Example 26.5, 9-acetamido-N-(4-fluorobenzyl)-3-hydroxy-7-morpholino-4-oxo-4H-pyrido[1,2-a]pyrimidine-2-carboxamide] as the compound, how does the pEC50 (HIV; [1]) read?
**A.** Its pEC50 is 7.00 to 7.70.

**Q.** Which results are given for `O=C(NCc1ccc(F)cc1)c1nc2c(N3CCCS3(=O)=O)cc(N3CCOCC3)cn2c(=O)c1O` [Example 24.4, N-(4-fluorobenzyl)-9-(1,3-propanesultam)-3-hydroxy-7-morpholino-4-oxo-4H-pyrido[1,2-a]pyrimidine-2-carboxamide]?
**A.** pEC50 (HIV; [1]): > 9.00; pEC50 (HIV-1; Human immunodeficiency virus 1): 7.70 to 8.00

**Q.** With `Cc1ccc2nc(C(=O)NCc3ccc(Cl)c(Cl)c3)c(O)c(=O)n2c1` [drawing 189, reference compound] as the compound, how does the pEC50 (HIV; [1]) read?
**A.** Its pEC50 is 6.00 to 7.00.

**Q.** `O=C(NCc1ccc(Cl)c(Cl)c1)c1nc2c(N3CCOCC3)cc(N3CCOCC3)cn2c(=O)c1O` [Example 22, N-(3,4-dichlorobenzyl)-3-hydroxy-7,9-dimorpholino-4-oxo-4H-pyrido[1,2-a]pyrimidine-2-carboxamide] was tested. Which pEC50 (HIV; [1]) did it give?
**A.** The pEC50 was 8.00 to 9.00.

**Q.** How did the pEC50 (HIV; [1]) turn out when `CC(=O)N(C)c1cc(N2CCOCC2)cn2c(=O)c(O)c(C(=O)NCc3ccc(F)cc3)nc12` [Example 28.3, N-(4-fluorobenzyl)-3-hydroxy-9-(N-methylacetamido)-7-morpholino-4-oxo-4H-pyrido[1,2-a]pyrimidine-2-carboxamide] was run?
**A.** Its pEC50 is 8.00 to 9.00.

**Q.** And the pEC50 (HIV-1; Human immunodeficiency virus 1)?
**A.** The pEC50 was 7.00 to 7.70.
